{"source": "patent US20230210829A1", "about": "“REJUVENATION OF AGED TISSUES BY INHIBITION OF THE PGE2 DEGRADING ENZYME, 15-PGDH” (The Board of Trustees of the Leland Stanford Junior …, priority 2020, published 2023)", "key": {"[1]": {"tested_on": "aged mice", "test": "Hematoxylin and Eosin (H&E) histological evaluation of spleen in aged mice treated with 15-PGDH inhibitor", "format": "in vivo", "conditions": "aged (25 months) mice, intraperitoneally for 4 weeks, H&E staining", "procedure": "FIG. 3. […] Hematoxylin and Eosin (H&E) staining of spleen in young vehicle treated (4 months), aged vehicle treated (25 months) and aged SW033291 treated (25 months) intraperitoneally for 4 weeks.\n(§1) All experiments and protocols were performed in compliance with the institutional guidelines of Stanford University and Administrative Panel on Laboratory Animal Care (APLAC). Aged (>24 mo.) mice C57BL/6 were obtained from the US National Institute on Aging (NIA) for aged muscle studies, and young (2-4 mo.) wild-type C57BL/6 mice from Jackson Laboratory."}, "[2]": {"tested_on": "aged mice", "test": "Luminex assay of mouse sera (serum cytokine levels) in aged mice treated with 15-PGDH inhibitor", "format": "in vivo", "conditions": "aged (25 months) mice, 4 weeks intraperitoneal administration", "excerpt": "FIGS. 4A-4H. Inhibition of 15-PGDH rejuvenates systemic cytokine levels. Serum levels of (FIG. 4A) interleukin-10 (IL10), (FIG. 4B) interleukin-6 (IL6), (FIG. 4C) betacellulin (BTC), (FIG. 4D) granulocyte-macrophage colony-stimulating factor (GM-CSF), (FIG. 4E) interleukin-13 (IL13), (FIG. 4F) tumor necrosis factor-alpha (TNFA), (FIG. 4G) interleukin-1 beta (IL1B), and (FIG. 4H) interleukin-22 (IL22) measured in young vehicle (4 months), young SW033291 (4 months), aged vehicle treated (25 months), and aged SW033291 treated (25 months) mice by Luminex bead arrays. MFI—Mean fluorescence intensity.\nas §1\nAging is associated with an altered state of inflammation and is associated with changes in circulating levels of various cytokines. Altered cytokine signaling in aging can initiate a cascade of dysregulated signaling pathways that negatively impact the function of various organs. Age-dysregulated cytokine signaling has been implicated in increased mortality, frailty, cellular senescence, vascular aging, cognitive decline, atherosclerosis, risk of osteoarthritis, and loss of bone mineral density in aging. […] Furthermore, a reduction of IL6 is associated with reduced adipose tissue inflammation and reduced cellular senescence. […] Increased IL22 levels are anti-inflammatory in colonic tissue and are beneficial for inflammatory bowel disease and colitis. […] This systemic effect in turn ameliorates the function of other tissues."}}}
{"smiles": "CCCC[S+]([O-])c1sc2nc(-c3cccs3)cc(-c3ccccc3)c2c1N", "note": "(stereo not drawn) [SW033291, 2-(butylsulfinyl)-4-phenyl-6-(thiophen-2-yl)thieno[2,3-b]pyridin-3-amine]", "values": [{"measurement": "cell density within the splenic follicles", "setting": "[1]", "value": "increased cell density within the follicles"}, {"measurement": "follicular structure of spleen", "setting": "[1]", "value": "restored"}, {"measurement": "marginal zone of spleen", "setting": "[1]", "value": "reestablished"}, {"measurement": "splenic morphology", "setting": "[1]; vs aged vehicle and young", "value": "rejuvenated the splenic morphology"}, {"measurement": "serum level of interleukin-10 (IL10)", "setting": "[2]; FIG. 4A", "value": "restored to levels similar to those of young mice"}, {"measurement": "serum level of interleukin-6 (IL6)", "setting": "[2]; FIG. 4B", "value": "restored to levels similar to those of young mice"}, {"measurement": "serum level of betacellulin (BTC)", "setting": "[2]; FIG. 4C", "value": "restored to levels similar to those of young mice"}, {"measurement": "serum level of granulocyte-macrophage colony-stimulating factor (GM-CSF)", "setting": "[2]; FIG. 4D", "value": "restored to levels similar to those of young mice"}, {"measurement": "serum level of interleukin-13 (IL13)", "setting": "[2]; FIG. 4E", "value": "restored to levels similar to those of young mice"}, {"measurement": "serum level of tumor necrosis factor-alpha (TNFA)", "setting": "[2]; FIG. 4F", "value": "further increased"}, {"measurement": "serum level of interleukin-1 beta (IL1B)", "setting": "[2]; FIG. 4G", "value": "further increased"}, {"measurement": "serum level of interleukin-22 (IL22)", "setting": "[2]; FIG. 4H", "value": "further increased"}]}
